Source: US6451780B1, “Progesterone antagonists for the production of pharmaceutical agents for the treatment of dysfunctional uterine bleeding” (Schering Aktiengesellschaft, priority 1995, dated 2002)

Assays:
Format in all cases: in vivo
[1] = tested on: Women with dysfunctional metrorrhagias; experiment: Acute treatment of metrorrhagias with onapristone; details: one-time oral 200-400 mg, preferably luteal phase
Experimental: Acute Treatment of Metrorrhagias by One-time Administration of Onapristone Women with dysfunctional metrorrhagias are orally treated on a one-time basis with 200-400 mg of onapristone. Preferred is treatment in the luteal phase of the cycle. The treatment results in a cessation of bleeding within 2-4 days.

[2] = tested on: Women with menorrhagias and hypermenorrhea; experiment: Prophylactic treatment of menorrhagias and hypermenorrhea with onapristone; details: 3-6 cycles
Experimental: Prophylactic Treatment of Menorrhagias and Hypermenorrhea by One-time Administration of Onapristone Women with menorrhagias and hypermenorrhea are orally treated with 200-400 mg of onapristone every 28 days. […] The treatment is continued for 3-6 cycles. Prophylactic Treatment of Menorrhagias and Hypermenorrhea by Repeated Administration of Onapristone Women with menorrhagias and hypermenorrhea are orally treated every 28 days for a maximum of 10 days with 200-400 mg/day of onapristone. […] The treatment is continued for 3-6 cycles.

[3] = tested on: Women with dysfunctional metrorrhagias; experiment: Prophylactic treatment of metrorrhagias with onapristone; details: 3-6 cycles
Experimental: Prophylactic Treatment of Metrorrhagias by One-time Administration of Onapristone Women with dysfunctional metrorrhagias are orally treated on a one-time basis with 200-400 mg of onapristone every 28 days. […] The treatment is continued for 3-6 cycles. Prophylactic Treatment of Metrorrhagias by Repeated Administration of Onapristone Women with dysfunctional metrorrhagias are orally treated every 28 days for a maximum of 10 days with 200-400 mg/day of onapristone. […] The treatment is continued over 3-6 cycles.

[4] = tested on: Women with menorrhagias and hypermenorrhea; experiment: Acute treatment of menorrhagias and hypermenorrhea with onapristone
Experimental: Acute Treatment of Menorrhagias and Hypermenorrhea by One-time Administration of Onapristone Women with menorrhagias and hypermenorrhea are orally treated on a one-time basis with 200-400 mg of onapristone on the 28th day of the cycle or on the first day of bleeding. The treatment induces menstruation-like bleeding of normal intensity (about 30 ml) and duration (about 5 days). Acute Treatment of Menorrhagias and Hypermenorrhea by Repeated Administration of Onapristone Women with menorrhagias and hypermenorrhea are orally treated until bleeding ceases on the 28th day of the cycle or on the first day of bleeding with 200-400 mg/day of onapristone, at most over 10 days.

[5] = one-time oral 200-400 mg every 28 days
[6] = repeated oral 200-400 mg/day every 28 days for a maximum of 10 days
[7] = one-time oral 200-400 mg on 28th day of cycle or first day of bleeding
[8] = repeated oral 200-400 mg/day until bleeding ceases, at most 10 days, from 28th day of cycle or first day of bleeding

CN(C)c1ccc([C@H]2C[C@]3(C)[C@@H](CC[C@]3(O)CCCO)[C@@H]3CCC4=CC(=O)CCC4=C32)cc1 [onapristone, 11β-(4-dimethylaminophenyl)-17α-hydroxy-17β-(3-hydroxy-propyl)-13α-methyl-4,9-gonadien-3-one]
cessation of bleeding within [1]: 2 to 4 days
duration of induced menstruation-like bleeding [2, 5]: about 5 days
intensity of induced menstruation-like bleeding [2, 5]: about 30 ml
occurrence of menorrhagias and hypermenorrhea [2, 5]: prevents the occurrence of menorrhagias and hypermenorrhea
duration of induced menstruation-like bleeding [2, 6]: about 5 days
intensity of induced menstruation-like bleeding [2, 6]: about 30 ml
occurrence of menorrhagias and hypermenorrhea [2, 6]: prevents the occurrence of menorrhagias and hypermenorrhea
duration of induced menstruation-like bleeding [3, 5]: about 5 days
intensity of induced menstruation-like bleeding [3, 5]: about 30 ml
occurrence of metrorrhagias [3, 5]: prevents the occurrence of metrorrhagias
duration of induced menstruation-like bleeding [3, 6]: about 5 days
intensity of induced menstruation-like bleeding [3, 6]: about 30 ml
occurrence of metrorrhagias [3, 6]: prevents the occurrence of metrorrhagias
duration of induced menstruation-like bleeding [4, 7]: about 5 days
intensity of induced menstruation-like bleeding [4, 7]: about 30 ml
increased blood loss ([4]; repeated oral 200-400 mg/day until bleeding ceases, at most 10 days): prevents increased blood loss
duration of induced menstruation-like bleeding [4, 8]: about 5 days
intensity of induced menstruation-like bleeding [4, 8]: about 30 ml
